Measured values published in patent US20240139220A1, “TREATMENT OF HPV INFECTION” (priority 2022, published 2024).

Test: Ex vivo permeation and penetration across porcine vaginal tissue (Franz diffusion cells, IVPT)
Assay type: in vitro ADME
Details: 0.1% dose; porcine and human tissues (FIG. 116)
Source text: FIG. 116 is an in vitro tissue permeation test in vaginal tissue comparing Compound II to ABI-1968. […] Bars B and C show the tissue penetration of a 0.1% Compound II gel in […]. […] This may be a contributing factor to the performance of ABI-1968 in clinical studies. […] This is described in Example 41.
Freshly harvested porcine vaginal tissue was procured from local slaughterhouse in an ice box. The vaginal tissue was cut open to expose the mucosal surface and tissue was cleaned by gentle flow of PBS pH 7.4. The porcine vaginal tissue was cut into circular portions (approximately 2 cm^2) with help of a […] punch.
The circular portion of tissue was sandwiched between two chambers of a Franz diffusion cell with an active diffusion area of 1 cm^2, and the mucosal layer was exposed to the donor chambers. The resistance across porcine vaginal tissue was measured using a wave form generator to ensure the integrity of the tissue segment used for the permeation study. Porcine vaginal tissue with resistance of ≥3 KΩ.cm^2 was used for study. The receiver chamber was filled with 8 ml of 5% solutol PBS 7.4 pH, which was stirred at 600 rpm with a 3 mm magnetic stir bar and the temperature was maintained at 37° C. with a circulating water bath.
The ˜200 mg of gel was filled into tared 1 mL syringe and gel was dispensed to donor chamber. The gel was spread on to mucosal surface with pre weighed applicator. After loading and spreading of the gel onto surface of mucosal surface, the weight of 1 mL syringe and applicator was noted to determine the exact amount of gel loaded into donor chamber.
Time course (2 h, 4 h and 8 h) porcine vaginal permeation studies were performed. After loading gel, 500 μL samples were withdrawn from the receiver compartment at different time intervals and each time an equal volume of fresh receiver media was used to replace withdrawn samples. The sample withdrawn at each time interval were stored immediately in −20° C. until analysis. After 2, 4 and 8 h, the formulation was removed from the donor chamber with help of syringe and cleaned with cotton swab. The tissue was removed and washed gently with wash solution (50% methanol in water) 5 times and alternatively cleaning with cotton swab.
An 8 mm punch of active diffusion area of washed porcine vaginal tissue was removed, weighed and transferred into a tube. This tube was immediately placed into dry ice for ˜15 min. After specified time, tissue was removed and placed in precooled dish. The tissue was minced into smaller pieces on a dish with a precooled surgical blade. The minced tissue was transferred to sample tubes and dish was rinsed with 1 ml of 5% solutol in PBS 7.4 pH and transferred to same tissue sample tube. These tubes were stored in −70° C. until analysis.
The samples stored at −20° C. was removed and thawed at room temperature for 30 min. The drug from receptor fluid was centrifuged at 13000 rpm for 5 min and to 200 μL of supernatant equal volume of extraction solvent was added. These samples were centrifuged at 13000 rpm for 5 min and supernatant was transferred into vials for analysis.
The minced tissue samples stored at −70° C. were removed and thawed at room temperature for ˜90 min. The samples were kept for shaking at room temperature for 4 h in BioShaker. After 4 h, samples were centrifuged at 13000 rpm for 5 min. To 100 μL of supernatant, 400 μL of extraction solvent was added and vortexed for 2 min. […]

SMILES: CCOC(=O)[C@H](C)NP(=O)(COCCn1cnc2c(OC)nc(N)nc21)OCc1ccccc1.O=C(O)/C=C/C(=O)O (mixture of isomers) [Compound I monofumarate, (±)-(2S)-ethyl-2-((((2-(2-amino-6-methoxy-9H-purin-9-yl)-ethoxy)-methyl)-(benzyloxy)-phosphoryl)-amino)-propionate monofumarate]
- Concentration in vaginal tissue: 40 to 85 ng/mL
